From US7776863B2, “Methods of treating HIV infection” (priority 2004, dated 2010)

Tests used:
[1] = system: HIV-1 LAI; test: microbe, parasite or virus in culture; conditions: for Combination Indices at % HIV Inhibition (Confidence Interval) 50% / Combination Indices at % HIV Inhibition (Confidence Interval) 75% / Combination Indices at % HIV Inhibition (Confidence Interval) 90% / Overall Result (combined anti-HIV effect): Compound 1 + named drug; for Combination Indices at % HIV Inhibition (Confidence Interval) 50% / Combination Indices at % HIV Inhibition (Confidence Interval) 75% / Combination Indices at % HIV Inhibition (Confidence Interval) 90%: 95% confidence interval in parentheses; for Overall Result (combined anti-HIV effect): all ratios, MT-2 cells, HIV-1 LAI; for EC50: Human immunodeficiency virus 1, MT2, 120 h
Protocol: (§1) Virus and cell lines. The T-cell lines, MT-2 and PM-1 were obtained through the AIDS Research and Reference Reagent Program, NIAID, and were contributed by Dr. D. Richman and Dr. R. Gallo, respectively. Both cell lines were cultured in RPMI 1640 medium supplemented with 10% fetal bovine serum, 2 mM L-glutamine and sub-cultured twice a week. The LAI strain of HIV-1 was obtained from the Fred Hutchinson Cancer Research Center, and the Bal strain was from NIH. Both virus stocks were amplified and titered in MT-2 cells (LAI) and PM-1 cells (Bal) using a virus infectivity assay.
(§2) Drug Susceptibility and Cytotoxicity Assays. For drug susceptibility assays, MT-2 cells were infected with HIV-1 LAI (or PM-1 cells with HIV-1 Bal) at an MOI of 0.005, and seeded into 96-well microtiter plates (0.1×10^6 cells/ml) containing serial dilutions of test compounds. […] Each drug ratio consisted of an array of 3-fold serial dilutions, and was performed in quadruplicate. The plates were incubated at 37° C./5% CO2. The MT-2 cells infected with HIV-1 LAI were incubated for 5 days. On day-five post-infection, 20 μl from each well was harvested and quantitated by a reverse transcriptase (RT) assay, or in samples involving non-nucleoside RT inhibitors, an MTS assay. The PM-1 cells infected with HIV-1 Bal and used for studying the combinations with CCR5 inhibitors were incubated for six days. On day-six post-infection, 20 μl from each well was harvested, 20- and 50-fold diluted and quantitated by p24 assay. Cytotoxicity assays were performed using uninfected cells, exposed to the same drug combinations, and incubated for six days. Cell viability was determined by an MTS assay. The CC50 values were calculated by using the exponential form of the median effect equation as mentioned below for calculation of EC50.
(§3) Analysis of Drug Combination Effects. For determination of CI values, drugs were diluted in a fixed ratio and multiple ratios were analyzed. The drug serial dilutions spanned a range of concentrations near the EC50 value of each compound, so that equivalent antiviral activities could be compared. Concentration-response curves were estimated for each individual drug and every combination using the median-effect equation. The equation was fit using a nonlinear regression routine (Proc Nlin) in PC SAS version 8.01 (SAS Institute Inc., SAS Version 8.01, Cary, N.C.: SAS Institute Inc., 1990).
(§4) In this equation, Fa stands for “fraction affected,” and represents the fraction of the viral load that has been inactivated. […] ED50 is drug concentration that is expected to reduce the amount of virus by 50%, and m is a parameter that reflects the slope of the concentration-response curve.
(§5) To assess antiviral effects of different drug combination treatments, combination indices (CIs) were calculated according to Chou and Rideout. The combination index was computed as CI=[D]1/[Dm]1+[D]2/[Dm]2
(§6) In this equation [Dm]1 and [Dm]2 are the concentrations of drugs that would individually produce a specific level of effect, while [D]1 and [D]2 are the concentrations of drugs in combination that would produce the same level of effect.
(§7) Theoretically, additivity is implied if the CI is equal to one, synergy if the CI is less than one, and antagonism if the CI is greater than one. […] At best, we can construct a range that contains the likely values for the CI, given the noise in the data. In this report, these ranges are reported in parentheses next to each point estimate of the CI. […] If the range fell entirely above 1.0, we would infer antagonistic behavior. If the range were to include 1.0, we would infer additivity.
(§8) In carrying out the combination experiments below, the EC50 for Compound 1 and each comparator compound was determined during the course of each study, and used in the subsequent data analysis.

[2] = system: uninfected cells; test: Cytotoxicity assay of drug combinations, uninfected cells, MTS assay; assay type: cell-based; conditions: Compound 1 + other drug at the highest concentrations tested, 6 days
Protocol: as §2, with “Assays.” for “Assays. For drug susceptibility assays, MT-2 cells were infected with HIV-1 LAI (or PM-1 cells with HIV-1 Bal) at an MOI of 0.005, and seeded into 96-well microtiter plates (0.1×10^6 cells/ml) containing serial dilutions of test compounds.”, “The MT-2 cells infected with HIV-1 LAI were incubated for 5 days.” left out

[3] = system: HIV-1 Bal; test: Drug susceptibility assay, PM-1 cells infected with HIV-1 Bal, combinations with CCR5 inhibitors (p24 assay); assay type: cell-based; conditions: for Combination Indices at % HIV Inhibition (Confidence Interval) 50% / Combination Indices at % HIV Inhibition (Confidence Interval) 75% / Combination Indices at % HIV Inhibition (Confidence Interval) 90%: 95% confidence interval in parentheses
Protocol: as §1, §2, §3, §4, §5, §6, §7, §8

[4] = EC50 ratio 1:1 (Compound 1:comparator)
[5] = EC50 ratio 1:2.5 (Compound 1:comparator)
[6] = EC50 ratio 2.5:1 (Compound 1:comparator)
[7] = Compound 1 + CCR5 inhibitor, EC50 ratio 1:1, PM-1 cells, HIV-1 Bal
[8] = Compound 1 + CCR5 inhibitor, EC50 ratio 1:2.5, PM-1 cells, HIV-1 Bal
[9] = Compound 1 + CCR5 inhibitor, EC50 ratio 2.5:1, PM-1 cells, HIV-1 Bal

CON(Cc1ccc(F)cc1)C(=O)C=C(O)C(=O)O [Compound 2, 3-[(4-Fluorobenzyl)methoxycarbamoyl]-2-hydroxyacrylic acid]
Combination Indices at % HIV Inhibition (Confidence Interval) 50% [1, 4]: 0.48 (0.39, 0.58) | Combination Indices at % HIV Inhibition (Confidence Interval) 75% [1, 4]: 0.51 (0.37, 0.65) | Combination Indices at % HIV Inhibition (Confidence Interval) 90% [1, 4]: 0.54 (0.31, 0.76) | Combination Indices at % HIV Inhibition (Confidence Interval) 50% [1, 5]: 0.44 (0.36, 0.53) | Combination Indices at % HIV Inhibition (Confidence Interval) 75% [1, 5]: 0.51 (0.37, 0.65) | Combination Indices at % HIV Inhibition (Confidence Interval) 90% [1, 5]: 0.59 (0.34, 0.85) | Combination Indices at % HIV Inhibition (Confidence Interval) 50% [1, 6]: 0.50 (0.36, 0.63) | Combination Indices at % HIV Inhibition (Confidence Interval) 75% [1, 6]: 0.70 (0.44, 0.97) | Combination Indices at % HIV Inhibition (Confidence Interval) 90% [1, 6]: 1.00 (0.41, 1.59) | Overall Result (combined anti-HIV effect) [1]: moderate synergistic | Overall Result (combined anti-HIV effect) ([1]; listed as BMS-538203): Moderate- | EC50 [1]: 79 nM | Cytotoxicity of the drug combination [2]: No significant cytotoxicity

CCO/N=C(\c1ccc(Br)cc1)C1CCN(C2(C)CCN(C(=O)c3c(C)cc[n+]([O-])c3C)CC2)CC1 [SchC]
Combination Indices at % HIV Inhibition (Confidence Interval) 50% [3, 7]: 0.19 (0.14, 0.25) | Combination Indices at % HIV Inhibition (Confidence Interval) 75% [3, 7]: 0.46 (0.29, 0.63) | Combination Indices at % HIV Inhibition (Confidence Interval) 90% [3, 7]: 1.12 (0.4, 1.83) | Combination Indices at % HIV Inhibition (Confidence Interval) 50% [3, 8]: 0.50 (0.38, 0.61) | Combination Indices at % HIV Inhibition (Confidence Interval) 75% [3, 8]: 0.92 (0.64, 1.21) | Combination Indices at % HIV Inhibition (Confidence Interval) 90% [3, 8]: 1.74 (0.83, 2.65) | Combination Indices at % HIV Inhibition (Confidence Interval) 50% [3, 9]: 0.08 (0.05, 0.11) | Combination Indices at % HIV Inhibition (Confidence Interval) 75% [3, 9]: 0.21 (0.14, 0.28) | Combination Indices at % HIV Inhibition (Confidence Interval) 90% [3, 9]: 0.54 (0.21, 0.88) | Overall Result (combined anti-HIV effect) ([3]; Compound 1 + CCR5 inhibitor, all ratios, PM-1 cells, HIV-1 Bal): Additive- | EC50 ([3]; single drug, PM-1 cells infected with HIV-1 Bal, 6 days, p24 assay): 0.9 nM

CC(C)Nc1cccnc1N1CCN(C(=O)c2cc3cc(NS(C)(=O)=O)ccc3[nH]2)CC1 [Delavirdine, delavirdine]
Combination Indices at % HIV Inhibition (Confidence Interval) 50% [1, 4]: 0.90 (0.75, 1.06) | Combination Indices at % HIV Inhibition (Confidence Interval) 75% [1, 4]: 0.49 (0.38, 0.61) | Combination Indices at % HIV Inhibition (Confidence Interval) 90% [1, 4]: 0.28 (0.18, 0.39) | Combination Indices at % HIV Inhibition (Confidence Interval) 50% [1, 5]: 0.57 (0.42, 0.71) | Combination Indices at % HIV Inhibition (Confidence Interval) 75% [1, 5]: 0.55 (0.36, 0.75) | Combination Indices at % HIV Inhibition (Confidence Interval) 90% [1, 5]: 0.57 (0.26, 0.89) | Combination Indices at % HIV Inhibition (Confidence Interval) 50% [1, 6]: 0.64 (0.49, 0.78) | Combination Indices at % HIV Inhibition (Confidence Interval) 75% [1, 6]: 0.46 (0.31, 0.60) | Combination Indices at % HIV Inhibition (Confidence Interval) 90% [1, 6]: 0.34 (0.17, 0.50) | Overall Result (combined anti-HIV effect) [1]: Synergistic | Overall Result (combined anti-HIV effect) ([1]; listed as delavirdine): synergistic | EC50 [1]: 25 nM
